{
  "source": "patent US8029980B2",
  "about": "“Identification and use of agents that modulate oncogenic transcription agent activity” (The Board of Trustees of the University of Illinois, priority 2006, dated 2011)",
  "key": {"[1]": {"tested_on": "Leukemia cell lines CEM, HL60 and U937", "test": "FoxM1 and cleaved caspase-3 immunoblot in leukemia cell lines", "type": "cell-based, human", "conditions": "5 μM, 48 hrs", "description": "FIG. 10. […] Leukemia cell lines CEM, HL60 and U937 were treated with 5 μM Siomycin A and thiostrepton, respectively, for 48 hrs and the cell lysates were analyzed for the levels of FoxM1 and cleaved caspase-3 by immunoblotting.\nImmunoblotting was performed as described (18-20) with antibodies specific for p21 (556431; BD Pharmingen), survivin (sc-10811; Santa Cruz), cleaved caspase-3 (9664; Cell Signaling), and β-actin (A5441; Sigma) antibodies. Immunoblot for FoxM1 was done using the previously generated rabbit antisera (2), and phospho-FoxM1 was detected using the MPM2 monoclonal antibody (Upstate Biotechnology) which recognizes the phosphorylated protein sequence phosphoserine/phosphothreonine-proline.\nNext we treated leukemia cell lines with mutant p53 CEM, HL60 and U937 with 5 μM of these compounds for 48 hrs and the cell lysates were analyzed for the levels of FoxM1 and cleaved caspase-3 by immunoblotting."}, "[2]": {"tested_on": "NB7 and NB7-casp8 neuroblastoma cells", "test": "FoxM1 and cleaved caspase-3 immunoblot in neuroblastoma cells", "type": "cell-based", "conditions": "24 hrs", "description": "FIG. 11. […] Cells were treated with Siomycin A, thiostrepton or DMSO, harvested 24 hrs later and the lysates were used to determine proteins levels by immunoblotting with antibodies specific for FoxM1, cleaved caspase-3 and β-actin (AS441, Sigma)."}, "FoxM1 [3]": {"target": "T1, FoxM1 (Homo sapiens, UniProt Q08050)", "T1 construct": "expressed in transfected cells; host or cells: U2OS clone C3 / C3-Luc", "T1 sequence (Q08050 1-748 isoform Q08050-2)": "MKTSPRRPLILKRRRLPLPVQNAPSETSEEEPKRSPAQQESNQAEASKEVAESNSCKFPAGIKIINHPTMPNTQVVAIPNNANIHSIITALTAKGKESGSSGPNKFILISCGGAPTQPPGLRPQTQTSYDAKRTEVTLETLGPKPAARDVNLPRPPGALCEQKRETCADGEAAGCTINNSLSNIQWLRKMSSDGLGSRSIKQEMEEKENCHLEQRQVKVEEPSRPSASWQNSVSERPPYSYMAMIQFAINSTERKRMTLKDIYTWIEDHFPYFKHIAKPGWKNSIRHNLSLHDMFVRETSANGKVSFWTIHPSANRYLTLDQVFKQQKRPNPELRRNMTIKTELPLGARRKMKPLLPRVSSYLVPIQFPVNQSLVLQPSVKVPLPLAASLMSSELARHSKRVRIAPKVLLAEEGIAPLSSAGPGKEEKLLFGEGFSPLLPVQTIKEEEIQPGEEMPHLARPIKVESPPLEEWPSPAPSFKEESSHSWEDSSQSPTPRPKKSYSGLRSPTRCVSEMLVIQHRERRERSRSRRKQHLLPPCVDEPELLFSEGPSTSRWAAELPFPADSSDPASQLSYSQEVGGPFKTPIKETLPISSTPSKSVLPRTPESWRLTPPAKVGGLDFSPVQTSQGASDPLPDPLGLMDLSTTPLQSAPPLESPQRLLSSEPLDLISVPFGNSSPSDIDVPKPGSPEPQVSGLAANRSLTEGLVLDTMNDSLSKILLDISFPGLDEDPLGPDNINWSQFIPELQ", "test": "FoxM1-responsive firefly luciferase reporter assay in C3-Luc cells", "type": "cell-based", "conditions": "C3-Luc cells", "description": "(§1) FIG. 6. Thiostrepton and Siomycin A both inhibit FoxM1 transcriptional activity. […] The next day, the luciferase activity was measured with the Dual-Luciferase reporter assay system (E1910; Promega) according to the manufacturer's instructions.\n(§2) The development of U2OS clone C3 cell line with doxycyclin inducible FoxM1-GFP fusion protein has been described before (17). This cell line was transfected with a plasmid expressing firefly luciferase under the control of 6× FoxM1 responsive (FoxRE) promoter (17), along with pcDNA3.1 (Invitrogen, Carlsbad, Calif.) plasmid that expresses neomycin phospho-transferase. […] This clone was further transfected with pRL-CMV (Promega) that expresses renilla luciferase along with pLPCX-puro (Clontech), and the cells were selected in 2 μg/ml puromycin. This cell line which expresses FoxM1-dependent firefly luciferase and constitutive renilla luciferase was named as C3-Luc and used for the screening of compound libraries (Challenge set and Diversity set) from the National Cancer Institute.\n(§3) For high-throughput screening, the C3-Luc cells were grown in 96-well plates and treated overnight with a combination of 1 μg/ml doxycycline and 10 μM of compounds from the library. Next day, the firefly and renilla luciferase activities were measured with the Dual Glo system (E2940; Promega).\n(§4) For the other luciferase assay experiments, the cells were treated as indicated in the FIG. 1 legend and the luciferase activity was measured using the Dual Luciferase reporter assay system (E1910; Promega) according to the manufacturer's instructions."}, "FoxM1 [4]": {"tested_on": "FoxM1", "test": "FoxM1-responsive firefly luciferase reporter assay in C3-Luc cells", "type": "cell-based, human", "conditions": "C3-Luc cells without doxycycline induction, increasing concentration", "description": "as §1, §2, §3, §4"}},
  "data": [
    {"molecule": "C=C(NC(=O)C(=C)NC(=O)c1csc(C2=N[C@@H]3c4csc(n4)[C@H]4NC(=O)c5csc(n5)[C@H]([C@](C)(O)[C@@H](C)O)NC(=O)[C@H]5CSC(=N5)/C(=C/C)NC(=O)[C@H]([C@@H](C)O)NC(=O)c5csc(n5)[C@]3(CC2)NC(=O)[C@H](C)NC(=O)C(=C)NC(=O)C(=C)NC(=O)[C@H](C(C)C)N[C@@H]2C=Cc3c([C@H](C)O)cc(nc3[C@H]2O)C(=O)O[C@@H]4C)n1)C(N)=O", "note": "[Siomycin A]", "values": [
      {"measurement": "FoxM1 expression", "setting": "[1]", "result": "inhibit FoxM1 expression"},
      {"measurement": "apoptosis (cleaved caspase-3)", "setting": "[1]", "result": "induce apoptosis"},
      {"measurement": "apoptosis (cleaved caspase-3)", "setting": "[2]; NB7 and NB7 with reconstituted caspase-8", "result": "induce apoptosis in these neuroblastoma cells independently from caspase-8"},
      {"measurement": "FoxM1 protein expression", "setting": "[2]; immunoblot", "result": "inhibit FoxM1 protein expression"},
      {"measurement": "relative firefly luciferase activity (FoxM1 transcriptional activity)", "setting": "FoxM1 [3]; 1 μg/mL doxycycline (60-fold induction), 5 μM compound, 24 hrs", "result": "efficiently reduced the value to basal levels"},
      {"measurement": "relative firefly luciferase activity (exogenous FoxM1 transcriptional activity)", "setting": "FoxM1 [3]; 1 μg/ml doxycycline induction (~16-fold), 10 μM compound, overnight", "result": "efficiently reduced the value to basal levels"},
      {"measurement": "firefly luciferase activity conferred by the FoxM1-responsive promoter (endogenous FoxM1)", "setting": "FoxM1 [4]", "result": "dose-dependent decrease"}
    ]}
  ]
}
